Assay results as given in patent US8722720B2, “Imidazole derivatives as IDO inhibitors” (NewLink Genetics Corporation, priority 2010, dated 2014).
pIC50: −log10 of the molar value. Structures can show the parent of a compound that is named as a salt.

These compounds were tested against T1, purified human IDO protein (Homo sapiens, UniProt P14902) (assay: Enzymatic IDO assay (kynurenine production, absorbance at 480 nm)). Details: recombinant human IDO; values reported in ranges; read-out: hIDO IC50.
T1 construct: 2 extra amino acids (linker from the BglII cloning site of pQE70); made in house; host or cells: E. coli M15(pREP4) with plasmid pQE70-hIDO
T1 sequence (P14902 whole entry P110S/E119G): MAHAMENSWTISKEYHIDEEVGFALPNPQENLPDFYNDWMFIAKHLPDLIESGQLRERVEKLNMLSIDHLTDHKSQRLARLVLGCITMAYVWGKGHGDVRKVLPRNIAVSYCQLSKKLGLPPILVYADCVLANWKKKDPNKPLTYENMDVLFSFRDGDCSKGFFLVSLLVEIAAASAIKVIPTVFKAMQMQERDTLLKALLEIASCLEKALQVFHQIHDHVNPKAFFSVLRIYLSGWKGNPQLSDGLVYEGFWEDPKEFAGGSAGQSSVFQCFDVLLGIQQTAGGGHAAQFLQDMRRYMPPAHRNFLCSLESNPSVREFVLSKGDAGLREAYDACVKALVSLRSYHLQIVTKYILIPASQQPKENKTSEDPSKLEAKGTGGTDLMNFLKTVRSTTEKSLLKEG
Assay type: biochemical
Protocol: The inhibitors were initially diluted in DMSO at 100 mM and were diluted in potassium phosphate 50 mM, added to the reaction mixture at final concentrations raging from 1 mM to 5 nM and preincubated with the enzyme for 5 min at 25° C. The reaction was started by addition of L-tryptophan to 200 μM and incubated 15 min at 37° C. The reaction was stopped by addition of 0.5 vol of 30% trichloroacetic acid and incubated 30 min at 60° C. to hydrolyze N-formylkynurenine to kynurenine. The reaction was centrifuged at 3400 g for 5 min to remove precipitated protein and the supernatant was reacted with 2% (w/v) of p-dimethylaminobenzaldehyde in acetic acid. The reaction was incubated 10 min at 25° C. and read at 480 nm in a spectrophotometer. […] Nonlinear regressions and determination of the IC50 values were performed using the GraphPad Prism 4 software.

pIC50 | Structure (SMILES)
5.00 to 6.00 | NC1CCCCC1NC(=O)Nc1ccc(CCOc2ccccc2-c2c[nH]cn2)cc1 (stereo not drawn) [compound 1216, 1-(4-(2-(2-(1H-imidazol-4-yl)phenoxy)ethyl)phenyl)-3-(2-aminocyclohexyl)urea]
5.00 to 6.00 | CC(COc1ccccc1-c1c[nH]cn1)C1CCCCC1 (stereo not drawn) [compound 1052, 4-(2-(2-cyclohexylpropoxy)phenyl)-1H-imidazole hydrochloride]
< 4.00 | c1ccc2c(-c3c[nH]cn3)ccnc2c1 [compound 1007, 4-(1H-imidazol-4-yl)quinoline]
5.00 to 6.00 | FC(F)(F)c1ccccc1CCOc1ccccc1-c1c[nH]cn1 [compound 1040, 4-(2-(2-(trifluoromethyl)phenethoxy)phenyl)-1H-imidazole]
4.00 to 5.00 | c1csc(-c2ccc(CCOc3ccccc3-c3c[nH]cn3)cc2)c1 [compound 1200, 4-(2-(4-(thiophen-2-yl)phenethoxy)phenyl)-1H-imidazole]
< 4.00 | c1ccc2c(-c3c[nH]cn3)cncc2c1 [compound 1004, 4-(1H-imidazol-4-yl)isoquinoline]
4.00 to 5.00 | CC(C)(C)OC(=O)N1CCC(CCOc2cccc(O)c2-c2cnc[nH]2)CC1 [compound 1240, tert-butyl 4-(2-(3-hydroxy-2-(1H-imidazol-5-yl)phenoxy)ethyl)piperidine-1-carboxylate]
4.00 to 5.00 | Oc1c(-c2cnc[nH]2)ccc(F)c1Cl [compound 1129, 2-chloro-3-fluoro-6-(1H-imidazol-5-yl)phenol]
5.00 to 6.00 | O=C(Cc1cscn1)Nc1ccc(CCOc2ccccc2-c2c[nH]cn2)cc1 [compound 1226, N-(4-(2-(2-(1H-imidazol-4-yl)phenoxy)ethyl)phenyl)-2-(thiazol-4-yl)acetamide]
5.00 to 6.00 | O=C(c1cccs1)N1CCC(CCOc2ccccc2-c2c[nH]cn2)CC1 [compound 1165, (4-(2-(2-(1H-imidazol-4-yl)phenoxy)ethyl)piperidin-1-yl)(thiophen-2-yl)methanone]
4.00 to 5.00 | c1ccc(OCc2cccc(-c3c[nH]cn3)c2)cc1 [compound 996, 4-(3-(phenoxymethyl)phenyl)-1H-imidazole]
4.00 to 5.00 | Fc1ccc(-c2cnc[nH]2)cc1Cl [compound 1037, 5-(3-chloro-4-fluorophenyl)-1H-imidazole]
4.00 to 5.00 | CC(Oc1ccccc1-c1c[nH]cn1)c1ccc(Cl)cc1 (stereo not drawn) [compound 1024, 4-(2-(1-(4-chlorophenyl)ethoxy)phenyl)-1H-imidazole]
> 6.00 | O=C(Nc1ccccc1)Nc1ccc(CCOc2ccccc2-c2cnc[nH]2)cc1 [compound 1152, 1-(4-(2-(2-(1H-imidazol-4-yl)phenoxy)ethyl)phenyl)-3-phenylurea]
5.00 to 6.00 | Nc1cccc(CC(=O)Nc2ccc(CCOc3ccccc3-c3c[nH]cn3)cc2)c1 [compound 1244, N-(4-(2-(2-(1H-imidazol-4-yl)phenoxy)ethyl)phenyl)-2-(3-aminophenyl)acetamide]
< 4.00 | COC(=O)c1ccccc1CCOc1ccccc1-c1c[nH]cn1 [compound 934, methyl 2-(2-(2-(1H-imidazol-4-yl)phenoxy)ethyl) benzoate]
5.00 to 6.00 | CC(C)(C)OC(=O)Nc1ccc(CCOc2ccccc2-c2c[nH]cn2)cc1 [compound 1046, tert-butyl 4-(2-(2-(1H-imidazol-4-yl)phenoxy)ethyl)phenylcarbamate]
> 6.00 | O=C(Nc1ccccc1)Nc1ccc(CCOc2ccccc2-c2c[nH]cn2)c(Cl)c1 [compound 1347, 1-(4-(2-(2-(1H-imidazol-4-yl)phenoxy)ethyl)-3-chlorophenyl)-3-phenylurea]
5.00 to 6.00 | O=C(Cc1ccccc1)Nc1ccc(CCOc2ccccc2-c2c[nH]cn2)cn1 [compound 1228, N-(5-(2-(2-(1H-imidazol-4-yl)phenoxy)ethyl)pyridin-2-yl)-2-phenylacetamide]
4.00 to 5.00 | c1ccc(-c2c[nH]cn2)c(OCc2ccc3occc3c2)c1 [compound 1028, 4-(2-(benzofuran-5-ylmethoxy)phenyl)-1H-imidazole]
5.00 to 6.00 | O=C(Nc1ccc(CCOc2ccccc2-c2c[nH]cn2)cc1)c1ccc[nH]c1=O [compound 1204, N-(4-(2-(2-(1H-imidazol-4-yl)phenoxy)ethyl)phenyl)-2-oxo-1,2-dihydropyridine-3-carboxamide]
< 4.00 | O=C(O)CCSc1nc(-c2ccccc2)c(-c2ccccc2)[nH]1 [compound 1079, 3-(4,5-diphenyl-1H-imidazol-2-ylthio)propanoic acid]
> 6.00 | O=C(Nc1ccc(CCOc2ccccc2-c2c[nH]cn2)cc1)Nc1ccccc1[N+](=O)[O-] [compound 1192, 1-(4-(2-(2-(1H-imidazol-4-yl)phenoxy)ethyl)phenyl)-3-(2-nitrophenyl)urea]
4.00 to 5.00 | CC(COc1ccccc1-c1c[nH]cn1)c1ccccc1 (stereo not drawn) [compound 978, 4-(2-(2-phenylpropoxy)phenyl)-1H-imidazole]

pIC50 | Structure (SMILES)
4.00 to 5.00 | Clc1ccc(CCOc2ccccc2-c2c[nH]cn2)cn1 [compound 1218, 5-(2-(2-(1H-imidazol-4-yl)phenoxy)ethyl)-2-chloropyridine]
5.00 to 6.00 | Nc1nc(CC(=O)Nc2ccc(CCOc3ccccc3-c3c[nH]cn3)cc2)cs1 [compound 1257, N-(4-(2-(2-(1H-imidazol-4-yl)phenoxy)ethyl)phenyl)-2-(2-aminothiazol-4-yl)acetamide]
5.00 to 6.00 | O=C(Cc1cccs1)Nc1ccc(CCOc2ccccc2-c2c[nH]cn2)cc1 [compound 1154, N-(4-(2-(2-(1H-imidazol-4-yl)phenoxy)ethyl)phenyl)-2-(thiophen-2-yl)acetamide]
5.00 to 6.00 | O=C(Nc1ccc(CCOc2ccccc2-c2c[nH]cn2)cc1)c1cccs1 [compound 1150, N-(4-(2-(2-(1H-imidazol-4-yl)phenoxy)ethyl)phenyl)thiophene-2-carboxamide]
< 4.00 | CN1CCN(CCOc2ccccc2-c2c[nH]cn2)CC1 [compound 1234, 1-(2-(2-(1H-imidazol-4-yl)phenoxy)ethyl)-4-methylpiperazine]
> 6.00 | O=C(Cc1ccccc1[N+](=O)[O-])Nc1ccc(CCOc2ccccc2-c2c[nH]cn2)cc1 [compound 1242, N-(4-(2-(2-(1H-imidazol-4-yl)phenoxy)ethyl)phenyl)-2-(2-nitrophenyl)acetamide]
4.00 to 5.00 | Ic1ccccc1-c1cnc[nH]1 [compound 1119, 5-(2-iodophenyl)-1H-imidazole]
4.00 to 5.00 | CC(COc1ccccc1-c1c[nH]cn1)c1ccccc1Cl (stereo not drawn) [compound 1109, 4-(2-(2-(2-chlorophenyl)propoxy)phenyl)-1H-imidazole]
5.00 to 6.00 | CC(=O)Nc1ccc(CCOc2ccccc2-c2c[nH]cn2)c(Cl)c1 [compound 1159, N-(4-(2-(2-(1H-imidazol-4-yl)phenoxy)ethyl)-3-chlorophenyl)acetamide]
> 6.00 | O=C(Nc1ccc(CCOc2ccccc2-c2c[nH]cn2)c(Cl)c1)NC1CCOCC1 [compound 1265, 1-(4-(2-(2-(1H-imidazol-4-yl)phenoxy)ethyl)-3-chlorophenyl)-3-(tetrahydro-2H-pyran-4-yl)urea]
5.00 to 6.00 | CC(COc1ccccc1-c1c[nH]cn1)c1coc2ccccc12 (stereo not drawn) [compound 1031, 4-(2-(2-(benzofuran-3-yl)propoxy)phenyl)-1H-imidazole]
> 6.00 | Nc1ccccc1CC(=O)Nc1ccc(CCOc2ccccc2-c2c[nH]cn2)cc1 [compound 1248, N-(4-(2-(2-(1H-imidazol-4-yl)phenoxy)ethyl)phenyl)-2-(2-aminophenyl)acetamide]
4.00 to 5.00 | CC(CC1CCCCC1)Oc1ccccc1-c1c[nH]cn1 (stereo not drawn) [compound 1044, 4-(2-(1-cyclohexylpropan-2-yloxy)phenyl)-1H-imidazole]
5.00 to 6.00 | Clc1cccc(-c2cnc[nH]2)c1OCCC1CCCCC1 [compound 1177, 5-(3-chloro-2-(2-cyclohexylethoxy)phenyl)-1H-imidazole]
5.00 to 6.00 | Nc1ccc(CC(=O)Nc2ccc(CCOc3ccccc3-c3c[nH]cn3)cc2)cc1 [compound 1250, N-(4-(2-(2-(1H-imidazol-4-yl)phenoxy)ethyl)phenyl)-2-(4-aminophenyl)acetamide]
5.00 to 6.00 | CC(C)(C)C(=O)Oc1ccc(Br)cc1-c1c[nH]cn1 [compound 967, 4-bromo-2-(1H-imidazol-4-yl)phenyl pivalate]
4.00 to 5.00 | Oc1ccc(OCc2ccccc2)cc1-c1cnc[nH]1 [compound 1105, 4-(benzyloxy)-2-(1H-imidazol-5-yl)phenol]
4.00 to 5.00 | c1ccc2c(-c3cnc[nH]3)cccc2c1 [compound 957, 5-(naphthalen-1-yl)-1H-imidazole]
4.00 to 5.00 | c1nc(-c2ccc3cc[nH]c3c2)c[nH]1 [compound 961, 6-(1H-imidazol-4-yl)-1H-indole]
< 4.00 | c1cnc2[nH]cc(-c3c[nH]cn3)c2c1 [compound 964, 3-(1H-imidazol-4-yl)-1H-pyrrolo[2,3-b]pyridine]
5.00 to 6.00 | O=C(Nc1ccccc1)Nc1ccc(CCOc2ccccc2-c2c[nH]cn2)cn1 [compound 1224, 1-(5-(2-(2-(1H-imidazol-4-yl)phenoxy)ethyl)pyridin-2-yl)-3-phenylurea]
4.00 to 5.00 | c1ccc(-c2cncn2-c2ccccc2)cc1 [compound 1108, 1,5-diphenyl-1H-imidazole]
< 4.00 | c1cc(-c2c[nH]cn2)ccn1 [compound 982, 4-(1H-imidazol-4-yl)pyridine]
4.00 to 5.00 | Oc1c(Cl)cc(Cl)c(OCCc2ccccc2Cl)c1-c1cnc[nH]1 [compound 1111, 4,6-dichloro-3-(2-chlorophenethoxy)-2-(1H-imidazol-5-yl)phenol]
